Data on 23 molecules can be found in US20210395242A1, “HETEROCYCLIC COMPOUNDS AS AHR MODULATORS” (JAGUAHR THERAPEUTICS PTE LTD, priority 2018, published 2021).

One assay addresses T1, AhR (Homo sapiens, UniProt P35869).
T1 construct: endogenous in cells; host or cells: U937 cells
T1 sequence (P35869 11-848): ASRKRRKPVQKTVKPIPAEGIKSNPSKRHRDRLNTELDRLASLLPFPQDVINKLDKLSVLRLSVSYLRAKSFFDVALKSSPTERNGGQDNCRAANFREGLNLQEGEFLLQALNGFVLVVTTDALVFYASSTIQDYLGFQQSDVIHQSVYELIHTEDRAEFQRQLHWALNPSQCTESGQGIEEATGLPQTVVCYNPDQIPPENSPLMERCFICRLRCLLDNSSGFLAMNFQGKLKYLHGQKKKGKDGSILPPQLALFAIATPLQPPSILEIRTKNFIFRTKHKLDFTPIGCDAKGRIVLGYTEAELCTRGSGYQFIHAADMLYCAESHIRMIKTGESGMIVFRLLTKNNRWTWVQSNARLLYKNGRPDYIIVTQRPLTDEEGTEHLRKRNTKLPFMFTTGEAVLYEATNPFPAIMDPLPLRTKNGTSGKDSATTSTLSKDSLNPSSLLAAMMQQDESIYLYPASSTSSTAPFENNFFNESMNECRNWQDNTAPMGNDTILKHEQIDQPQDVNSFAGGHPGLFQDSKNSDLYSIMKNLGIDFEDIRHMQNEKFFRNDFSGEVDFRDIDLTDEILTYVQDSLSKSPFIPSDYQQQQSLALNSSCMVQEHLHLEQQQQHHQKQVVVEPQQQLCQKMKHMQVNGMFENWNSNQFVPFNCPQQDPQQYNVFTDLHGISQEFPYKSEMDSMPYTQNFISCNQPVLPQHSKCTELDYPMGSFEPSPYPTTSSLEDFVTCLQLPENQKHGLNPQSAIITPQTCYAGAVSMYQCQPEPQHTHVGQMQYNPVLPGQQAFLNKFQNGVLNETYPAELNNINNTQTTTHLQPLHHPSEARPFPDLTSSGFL
Put plainly: AhR antagonism in U937 cells (Promega P450-Glo assay). The conditions noted are these: inhibition of 300 μM KYNA response, 24 hrs, CYP1A1 activity readout (Luciferin-CEE), arithmetic mean of pIC50. The format is cell-based. As to the method:
(§1) The compounds of the examples were tested in selected biological assays two or more times. Data are reported as the arithmetic mean of the pIC50 (−log10IC50) values, where IC50 is defined as the concentration of compound producing a 50% inhibition of the agonist (KYNA) response.
In Vitro Assay 1: AhR Antagonism in U937 Cells (Promega P450-Glo™ Assay)
AhR antagonism was assessed in U937 cells (myeloid lineage cell line derived from a human histiocytic lymphoma). Ligand binds the AhR in the cytoplasm, and the AhR-ligand complex translocates to the nucleus and forms a heterodimer with AhR nuclear translocator (Arnt). This complex binds the xenobiotic response element (XRE) in the 5′ upstream region of the CYP1A1 promoter, enhancing CYP1A1 expression. CYP1A1 activity is subsequently determined by assessing the conversion of Luciferin-CEE to luciferin, which in turn reacts with luciferase to produce light. The amount of light produced is directly proportional to cytochrome P450 activity. U937 cells in Ultraculture serum free media (Lonza) were plated at 100,000 cells per well in a round bottom 96 well tissue culture plate. Seven concentrations of test compound (final [DMSO]1%) were added and incubated for 10 minutes before the addition of 300 μM KYNA. The plates were then placed in an incubator at 37° C., >85% humidity, 5% CO2 for 24 hrs. After aspiration of the supernatant the CYP1A1 substrate Luciferin-CEE ([Final] 83 μM) was added and incubated for 3 hrs before the reaction was stopped by adding luciferin detection reagent and luminescence was read after 20 minutes.

Another assay concerns the target T2, CYP1A1 (Homo sapiens, UniProt P04798).
T2 construct: purchased Cypex
T2 sequence (P04798 1-512): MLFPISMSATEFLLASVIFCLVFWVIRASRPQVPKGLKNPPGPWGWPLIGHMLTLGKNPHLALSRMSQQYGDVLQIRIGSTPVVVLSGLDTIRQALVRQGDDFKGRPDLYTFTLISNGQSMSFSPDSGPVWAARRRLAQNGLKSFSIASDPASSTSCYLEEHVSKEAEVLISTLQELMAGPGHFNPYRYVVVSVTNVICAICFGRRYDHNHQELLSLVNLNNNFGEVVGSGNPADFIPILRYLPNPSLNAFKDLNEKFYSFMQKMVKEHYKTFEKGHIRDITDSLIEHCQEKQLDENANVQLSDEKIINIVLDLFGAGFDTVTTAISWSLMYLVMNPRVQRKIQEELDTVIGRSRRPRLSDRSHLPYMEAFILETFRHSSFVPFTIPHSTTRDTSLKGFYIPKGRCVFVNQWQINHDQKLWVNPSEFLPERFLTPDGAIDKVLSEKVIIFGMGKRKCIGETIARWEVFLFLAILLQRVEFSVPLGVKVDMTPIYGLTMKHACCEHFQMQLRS
Put plainly: CYP1A1 inhibition assay (Promega P450-Glo, Cypex CYP1A1 bactosomes). The assay is classed as biochemical. As to conditions: Luciferin-CEE 30 μM, 0.2 mM NADPH, 37° C. 10 minutes, arithmetic mean of pIC50. As to the method: as §1
In vitro assay 2: CYP1A1 inhibition assay The direct CYP1A1 inhibitory activity of test compounds was also assessed using the Promega P450-Glo™ assay system. Seven concentrations of test compound were added to a ½ area white 96 well plate. Cypex CYP1A1 bactosomes ([final] 0.5 pmol) and CYP1A1 substrate Luciferin-CEE ([final] 30 μM) were prepared in 0.1M potassium phosphate buffer and incubated with test compounds at 37° C. for 5 minutes. 0.2 mM NADPH was then added to the plates and incubated at 37° C., for 10 minutes. The reaction was stopped by adding luciferin detection reagent and luminescence was read after 20 minutes.

A word on the IC50: it is the point on the concentration scale where inhibition reaches its midpoint. Higher therefore signals lower potency. Turning to `Cn1nccc1C(=O)Nc1ccc(-c2nc3cccc(Cl)c3o2)cc1` [Example 11, N-(4-(7-chlorobenzo[d]oxazol-2-yl)phenyl)-1-methyl-1H-pyrazole-5-carboxamide], the IC50 at AhR was 12.6 nM; at CYP1A1 it was 794 nM.

Take `Cn1nccc1C(=O)Nc1ccc(-c2nc3cccc(C#N)c3o2)cc1` [Example 16, N-(4-(7-Cyanobenzo[d]oxazol-2-yl)phenyl)-1-methyl-1H-pyrazole-5-carboxamide]: the values for the IC50 against AhR and against CYP1A1 were 15.8 nM and 2510 nM, respectively.

For `Cc1nc(-c2ccc(NC(=O)c3ccnn3C)cc2)oc1C` [Example 5, N-(4-(4,5-dimethyloxazol-2-yl)phenyl)-1-methyl-1H-pyrazole-5-carboxamide], the IC50 is 15.8 nM on AhR and 1000 nM at CYP1A1.

As to `Cc1cccc2nc(-c3ccc(NC(=O)c4ccnn4C)cc3)oc12` [Example 6, 1-methyl-N-(4-(7-methylbenzo[d]oxazol-2-yl)phenyl)-1H-pyrazole-5-carboxamide], the IC50 against AhR is 39.8 nM; against CYP1A1, 631 nM.

`Cc1cc(NC(=O)c2ccon2)ccc1-c1nc2cccc(C)c2o1` [Example 8, N-(3-methyl-4-(7-methylbenzo[d]oxazol-2-yl)phenyl) isoxazole-3-carboxamide]: the IC50 is 79.4 nM on AhR and 282 nM at CYP1A1.

Take `Cn1nccc1C(=O)Nc1ccc(-c2nc3cccc(C(N)=O)c3o2)cc1` [Example 14, 2-(4-(1-methyl-1H-pyrazole-5-carboxamido)phenyl) benzo [d]oxazole-7-carboxamide]: the values for the IC50 against AhR and against CYP1A1 were 200 nM and 2510 nM, respectively.

`CCn1c(-c2ccc(NC(=O)c3ccnn3C)cc2)nc2ccccc21` [Example 1, N-(4-(1-ethyl-1H-benzo[d]imidazol-2-yl)phenyl)-1-methyl-1H-pyrazole-5-carboxamide]: the IC50 against AhR is 63.1 nM; against CYP1A1, 251 nM.

On to `Cn1nccc1C(=O)Nc1ccc(-c2nc3cccc(Cl)c3[nH]2)cc1` [Example 19, N-(4-(7-chloro-1H-benzo[d]imidazol-2-yl)phenyl)-1-methyl-1H-pyrazole-5-carboxamide], for which the half-inhibitory concentration (IC50) on AhR was 145 nM; against CYP1A1, 316 nM.

Regarding `COCCn1nccc1C(=O)Nc1ccc(-c2nc3cccc(C)c3o2)cc1` [Example 24, 1-(2-methoxyethyl)-N-(4-(7-methylbenzo[d]oxazol-2-yl)phenyl)-1H-pyrazole-5-carboxamide], the IC50 against AhR is 63.1 nM; against CYP1A1, 631 nM.

As to `Cn1nccc1C(=O)Nc1ccc(-c2nc3cccc(C(C)(C)O)c3o2)cc1` [Example 18, N-(4-(7-(2-hydroxypropan-2-yl)benzo[d]oxazol-2-yl)phenyl)-1-methyl-1H-pyrazole-5-carboxamide], the IC50 was 363 nM against AhR and 251 nM at CYP1A1.

Regarding `Cc1cc(NC(=O)c2ccnn2C)ccc1-c1nc2cccc(C)c2o1` [Example 9, 1-methyl-N-(3-methyl-4-(7-methylbenzo[d]oxazol-2-yl)phenyl)-1H-pyrazole-5-carboxamide], the figures for the half-maximal inhibitory concentration (IC50) against AhR and against CYP1A1 were 7.94 nM and 158 nM, respectively.

On to `Cc1cc(NC(=O)c2ccon2)ccc1-c1nc2ccccc2o1` [Example 7, N-(4-(benzo[d]oxazol-2-yl)-3-methylphenyl)isoxazole-3-carboxamide], for which the values for the IC50 against AhR and on CYP1A1 were 79.4 nM and 631 nM, respectively.

For `CCNC(=O)c1cccc2nc(-c3ccc(NC(=O)c4ccnn4C)cc3)oc12` [Example 15, N-Ethyl-2-(4-(1-methyl-1H-pyrazole-5-carboxamido)phenyl) benzo[d]oxazole-7-carboxamide], the half-maximal inhibitory concentration (IC50) against AhR is 398 nM; against CYP1A1, 1000 nM.

At CYP1A1, `COC(=O)c1cccc2nc(-c3ccc(NC(=O)c4ccnn4C)cc3)oc12` [Example 3, methyl 2-(4-(1-methyl-1H-pyrazole-5-carboxamido)phenyl) benzo[d]oxazole-7-carboxylate] gave an IC50 of 1260 nM.

As for `CNC(=O)c1cccc2nc(-c3ccc(NC(=O)c4ccnn4C)cc3)oc12` [Example 4, N-methyl-2-(4-(1-methyl-1H-pyrazole-5-carboxamido)phenyl) benzo[d]oxazole-7-carboxamide], the results for the IC50 against AhR and against CYP1A1 were 79.4 nM and 1000 nM, respectively.

As to `COCCn1nccc1C(=O)Nc1ccc(-c2nc3ccccc3o2)cc1` [Example 2, N-(4-(benzo[d]oxazol-2-yl)phenyl)-1-(2-methoxyethyl)-1H-pyrazole-5-carboxamide], the IC50 at AhR was 100 nM; against CYP1A1, 794 nM.

With `Cn1nccc1C(=O)Nc1ccc(-c2nc3ccccc3s2)cc1` [Example 21, N-(4-(benzo[d]thiazol-2-yl)phenyl)-1-methyl-1H-pyrazole-5-carboxamide], the IC50 is 50.1 nM against AhR and 316 nM against CYP1A1.

Turning to `Cn1nccc1C(=O)Nc1ccc(-c2nc3ccccc3o2)cc1` [Example 10, N-(4-(benzo[d]oxazol-2-yl)phenyl)-1-methyl-1H-pyrazole-5-carboxamide], the values for the IC50 at AhR and at CYP1A1 were 25.1 nM and 200 nM, respectively.

In the case of `Cn1nccc1C(=O)Nc1ccc(-c2nc3ccccc3[nH]2)cc1` [Example 20, N-(4-(1H-benzo[d]imidazol-2-yl)phenyl)-1-methyl-1H-pyrazole-5-carboxamide], the IC50 against AhR is 158 nM; against CYP1A1 it was 224 nM.

In the case of `Cn1nccc1C(=O)Nc1ccc(-c2nc3cccc(CO)c3o2)cc1` [Example 13, N-(4-(7-(hydroxymethyl)benzo[d]oxazol-2-yl)phenyl)-1-methyl-1H-pyrazole-5-carboxamide], the results for the IC50 on AhR and against CYP1A1 were 100 nM and 794 nM, respectively.

With `Cc1cccc2oc(-c3ccc(NC(=O)c4ccnn4C)cc3)nc12` [Example 17, 1-methyl-N-(4-(4-methylbenzo[d]oxazol-2-yl)phenyl)-1H-pyrazole-5-carboxamide], the values for the IC50 at AhR and at CYP1A1 were 31.6 nM and 1000 nM, respectively.

`Cc1cc(NC(=O)c2ccnn2C)ccc1-c1nc2ccccc2o1` [Example 22, N-(4-(benzo[d]oxazol-2-yl)-3-methylphenyl)-1-methyl-1H-pyrazole-5-carboxamide]: the half-inhibitory concentration (IC50) was 7.94 nM at AhR and 200 nM at CYP1A1.

For the molecule `Cn1nccc1C(=O)Nc1ccc(-c2nc3cccc(C(=O)NCCc4c[nH]c5ccccc45)c3o2)cc1` [Example 12, N-(2-(1H-indol-3-yl)ethyl)-2-(4-(1-methyl-1H-pyrazole-5-carboxamido)phenyl)benzo[d]oxazole-7-carboxamide], the values for the IC50 on AhR and at CYP1A1 were 50.1 nM and 251 nM, respectively.
